Reference: patent US20230172973A1, “METHODS AND COMPOSITIONS FOR TREATING AND COMBATTING TUBERCULOSIS” (THIRTY RESPIRATORY LIMITED, priority 2020, published 2023)

Legend:
[1] = system: Vero E6 cells; settings: 2 hr and 24 hr
[2] = system: SARS-CoV-2 clinical isolate; assay: SARS-CoV-2 inhibition (virus yield reduction, TCID50 titration); assay type: cell-based
Experimental: At time 0 hr, Vero E6 cells were infected with virus in presence of the formulation or controls and incubated for 1 hour. After this incubation period the inoculum was removed and the cells were washed. Fresh formulation or controls were then added to the washed cells. At 24 hours post infection, Vero E6 cell supernatants were harvested and titrated, and the virus titration was incubated for 6 days prior to readout to determine any virus yield reduction. Separate tests were performed at four MOIs including 3.0 and 0.3, although only those two MOIs were titrated. The readout was by crystal violet (cell monolayer) staining, followed by CPE scoring.

| Compound | Cytotoxicity on the LDH assay (FIG. 32) [1] | In vitro antiviral action against SARS-CoV-2 (FIGS. 33 and 34) ([2]; Vero E6 cells, MOI 3.0 and 0.3) | SARS-CoV-2 titre (FIG. 33, Run 1) ([2]; MOI 3.0, 24 hours incubation) | SARS-CoV-2 titre (FIG. 34, Run 2) ([2]; MOI 3.0 and MOI 0.3, 48 hours incubation) |
| --- | --- | --- | --- | --- |
| O=C(O)CC(O)(CC(=O)O)C(=O)O [citric acid pH 5.8, citric acid] | low cytotoxicity | high in vitro antiviral action |  |  |
| CCN(CC)CCCC(C)Nc1ccnc2cc(Cl)ccc12 (stereo not shown) [chloroquine, Chloroquine phosphate] |  |  | limit of detection | limit of detection |
